Results published in patent publication US20240238459A1, “Granzyme-Activatable Membrane-Interacting Peptides and Methods of Use” (priority 2021, published 2024).
Peptide text beside a SMILES is read from it. * marks the point of attachment. DOTA = O=C(O)CN1CCN(CC(=O)O)CCN(CC(=O)*)CCN(CC(=O)O)CC1; Ahx = NCCCCCC(=O)O

Legend:
[1] = target: recombinant human GZMB (Homo sapiens, UniProt P10144); experiment: Cleavage of GRIP B / ^64Cu-GRIP B by recombinant human GZMB (rad-HPLC); assay type: biochemical; conditions: incubation with recombinant human GZMB (400 nM per FIG. 2D legend); product comigrated with cold cleaved DOTA-peptide fragment
[2] = PET/CT, biodistribution and autoradiography in mice bearing CT26 tumors treated with vehicle or CPI; conditions: both, mouse, in vivo, iv, total radioactivity
Procedure: (§1) The effect of immunomodulatory therapies on ^64Cu-GRIP B biodistribution was next evaluated in mice bearing subcutaneous CT26 tumors, a mouse colorectal cancer cell line that responds to immunomodulatory therapy. Mice were treated with three intraperitoneal infusions of vehicle or anti-PD1 plus anti-CTLA4 CPIs over 11 days. The radiotracer was injected on day 14, and tumor uptake was monitored over several time points out to 24 hours post injection on PET.
(§2) A biodistribution study at 2 hours post injection was performed to determine relative changes in tracer uptake between tissues in the vehicle and treated groups.
(§3) All animal experiments were approved by the Institutional Animal Care and Use Committee at UCSF. Four to six week old male or female balb/c mice and C57BL6/J mice were purchased from Jackson Laboratory and housed with free access to the water and food. All mice were inoculated with 5×10^6 CT26, MC38, or EMT6 cells in a mixture of media and Matrigel (Corning) (v/v 1:1) subcutaneously into the left shoulder. Anti-mouse PD-1 (CD279) (BE0146) and anti-mouse CTLA-4 (CD152) (BE0164) were purchased from Bio X Cell and stored at 4° C. during the treatment studies. Mice bearing subcutaneous tumors were received anti-mouse CTLA-4 (200 ug) or/and anti-mouse PD-1 (200 ug) and as a combination therapy or PBS as the vehicle on days 5, 8, 11 following the tumor inoculation. Mice were weighed and the tumor volume were measured with calipers on the same day of the treatment. On day 14, all mice were used for PET/CT or BioD studies.
(§4) ^64Cu-L-GRIP B or ^64Cu-D-GRIP B (˜100 μCi/mouse) in 100-150 μL of 10% DMSO and 10% Tween 80 in saline was injected via tail vein. After a period of uptake time, mice were anesthetized with isoflurane (˜2%), and imaged with a microPET/CT scanner (Inveon, Siemens). For static imaging, mice were scanned for 30 min for PET data acquisition and 10 min for CT data acquisition. For the dynamic acquisitions, the mice were anesthetized, positioned on the scanner bed, and injected intravenously with radiotracer. The dynamic acquisition was performed for scanned for 60 min followed by a 10 min CT acquisition.
(§5) At dedicated time points post radiotracer injection, mice were euthanized with CO2(g) asphyxiation, and the blood was collected by direct cardiac puncture. Tissues were harvested, weighed and counted on a gamma counter (Hidex). The amount of radioactivity in the tissues was determined by comparison with a standard of known activity. The samples were decay-corrected and expressed as the percentage of the injected dose/weight of the harvested tissues (% ID/g).
(§6) Tumors or designated tissue were flash frozen in OCT in dry ice. The tissues were sectioned with a microtome (Leica) into slices with 10-20 um thickness and directly mounted on glass slides (VWR). GE Storage Phosphor Screen were exposed by such slides with radioactive tissue. After 10 half-live of copper-64, the screen was developed on a phosphorimager (Typhoon 9400). The images were further analyzed by using Fiji software.

[3] = system: subcutaneous CT26 tumors; experiment: as above
Procedure: as §1, §2, §3, §4, §5, §6

[4] = system: E. coli; experiment: PET/CT and biodistribution in E. coli myositis in germline GZMB knockout mice; assay type: in vivo, mouse
Procedure: To confirm the radiotracer uptake in the abscess was due to granzyme B, imaging studies were performed in germline GZMB knockout mice. The mice received live and heat killed E. Coli and were injected and imaged following the same protocol for wild type mice.

[5] = biodistribution at 2 hours post injection

Sequence of recombinant human GZMB (P10144 21-247): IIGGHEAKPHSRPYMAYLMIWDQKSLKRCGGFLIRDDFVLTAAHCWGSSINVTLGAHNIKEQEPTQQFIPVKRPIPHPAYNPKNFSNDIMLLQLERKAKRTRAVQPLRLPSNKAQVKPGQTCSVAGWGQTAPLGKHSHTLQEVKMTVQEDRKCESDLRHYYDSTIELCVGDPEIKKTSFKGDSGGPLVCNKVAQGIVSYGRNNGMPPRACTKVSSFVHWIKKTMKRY

CC[C@H](C)[C@H](NC(=O)[C@H](CCCCN)NC(=O)CNC(=O)[C@H](CC(C)C)NC(=O)[C@H](Cc1ccccc1)NC(=O)[C@H](CCCCN)NC(=O)[C@H](CO)NC(=O)[C@H](Cc1ccccc1)NC(=O)[C@H](Cc1c[nH]c2ccccc12)NC(=O)[C@H](CCC(N)=O)NC(=O)[C@@H](NC(=O)[C@H](Cc1ccccc1)NC(=O)CCCCCNC(=O)CN1CCN(CC(=O)O)CCN(CC(=O)O)CCN(CC(=O)O)CC1)C(C)C)C(=O)N[C@@H](CCC(=O)O)C(=O)N1CCC[C@H]1C(=O)N[C@@H](CC(=O)O)C(=O)N[C@H](C(=O)N[C@@H](CO)C(=O)N[C@@H](CCC(N)=O)C(=O)N[C@H](C(=O)N[C@@H](CCC(N)=O)C(=O)N[C@@H](CC(=O)O)C(=O)N1CCC[C@H]1C(=O)N[C@@H](CC(N)=O)C(=O)N[C@@H](CC(=O)O)C(=O)N[C@@H](CCC(N)=O)C(=O)N[C@@H](Cc1ccc(O)cc1)C(=O)N[C@@H](CCC(=O)O)C(=O)N1CCC[C@H]1C(=O)N[C@@H](Cc1ccccc1)C(=O)O)C(C)C)C(C)C [^64Cu-GRIP B, metal not drawn] ({DOTA-Ahx}-FVQWFSKFLGKIEPDVSQVQDPNDQYEPF-OH)
time to conversion to one radiolabeled product [1]: ≤ 30 min | tissue uptake per volume at 10 min [2]: ~5 %ID/mL | time course of uptake in treated tumors ([3]; CPI (anti-PD1 plus anti-CTLA4) treated, static PET/CT ROI analysis): steadily rose from 0.5 to 2-4 hours post injection | persistence of radioactivity in tumors ([3]; CPI treated, PET): persisted in tumors out to 24 hours post injection | digital autoradiography signal, treated versus control tumor ([3]; CT26 tumor slices, co-aligned with GZMB and CD3): significantly higher | tumoral uptake, CPI versus vehicle treated arm ([3]; PET, 2 hours post injection): significantly higher | induction of radiotracer uptake in tumors, treated compared to control mice [3, 5]: ~50% | tracer uptake within the spleen, treated versus vehicle [3, 5]: significant increase | radiotracer uptake in vehicle tumors by comparison with CPI treated ([3]; vehicle treated mice, dynamic PET): significantly lower and did not change over time | correlation of tumor to blood ratios with percent change in tumor volume ([3]; wild type mice, day 11): significantly correlated | correlation of tumoral uptake with percent change in tumor volume ([3]; wild type mice, day 11 compared to day 0): significantly correlated | normal tissue biodistribution (biodistribution out to 24 hours post injection): highest level of tissue-associated activity in the kidney and liver | dominant mode of clearance (intravenous, C57B16/J mice, dynamic PET): renal | uptake in infected muscle, GZMB knockout compared to wild type ([4]; PET/CT and biodistribution): lower | difference in tracer uptake between normal muscle, live and heat killed E. Coli treated muscle ([4]; knockout strain): negligible difference
